From patent US11992297B2, “Monitoring method of heart rate for toxicity test using high-speed digital holography” (KOREA RESEARCH INSTITUTE OF STANDARDS AND SCIENCE, priority 2020, dated 2024)
Where two headings read alike, the source gives them in different places.

Columns and labels:
[1] = test system: water flea; settings: 0.06 mM-treated test group versus 0.03 mM-treated group; FIG. 8 (d)
[2] = test system: water flea; settings: for change of heart rate (final RHR) relative to the original heart rate (OHR) / decrease of heart rate (final RHR) relative to the original heart rate (OHR): FIG. 7 (C); for decrease of heart rate (final RHR) relative to the original heart rate (OHR): normalized for initial RHR; for relaxation heart rate (RHR) 0 hr / relaxation heart rate (RHR) 24 hr: average ± SD; for RHR normalization relative to 0 hr: 24 hr relative to 0 hr; for heart rate decrease after 24 hours (normalized average RHR): FIG. 8 (B),(C)
Procedure: In the individual response evaluation apparatus, an extra-axial digital holography method was used to take a hologram of the water flea with a CCD camera.
The heart rate of the water flea was analyzed by the reconstructed time-resolved phase distributions, from the heart rate signal obtained by the method.
A Fourier spectrum method was used for evaluating periodic characteristics in heart rate analysis. In (C) of FIG. 5, a one-dimensional Fourier spectrum method was used for each pixel of 1000 frame sets to calculate a two-dimensional frequency distribution of the water flea.
2 hours after the observation, 19 mL of hydrogen peroxide having concentrations of 0.00 mM, 0.03 mM, and 0.06 mM, respectively was each mixed for each experiment to perform the experiment repeatedly so that the water flea is exposed to the hydrogen peroxide. At this time, in a negative control group of 0.00 mM treatment, 10 mL of an M4 medium was further mixed for unifying volume.
Upon observation, the heart rate analysis was performed by dividing the section into those before and after exposure to hydrogen peroxide.
In order to express the heart rate trend of (B) of FIG. 7, in (A) of FIG. 7, an original heart rate (OHR) was flattened every 30 minutes by a moving average method.

[3] = 0.03 mM hydrogen peroxide, Group (N=3)
[4] = 0.03 mM hydrogen peroxide, specimen #4
[5] = 0.03 mM hydrogen peroxide, specimen #5
[6] = 0.03 mM hydrogen peroxide, specimen #6
[7] = 0.06 mM hydrogen peroxide, Group (N=3)
[8] = 0.06 mM hydrogen peroxide, specimen #7
[9] = 0.06 mM hydrogen peroxide, specimen #8
[10] = 0.06 mM hydrogen peroxide, specimen #9

Question: For OO [hydrogen peroxide], which “reactive oxygen species (ROS) level, times higher than the 0.03 mM-treated group” value [1] is on record?
Answer: The value was 7.8 times.

Question: And the “change of heart rate (final RHR) relative to the original heart rate (OHR)” value ([2]; 0.03 mM hydrogen peroxide)?
Answer: Its value is −13 BPM.

Question: And the “decrease of heart rate (final RHR) relative to the original heart rate (OHR)” value ([2]; 0.03 mM hydrogen peroxide)?
Answer: The value was 3.3%.

Question: And the “relaxation heart rate (RHR) 0 hr” value [2, 3]?
Answer: Its value is 366.81 ± 20.43 BPM.

Question: What about the “RHR normalization relative to 0 hr” value [2, 3] of the same molecule?
Answer: Its value is 92.84 ± 5.60%.

Question: And the “relaxation heart rate (RHR) 24 hr” value [2, 3]?
Answer: Its value is 340.33 ± 21.98 BPM.

Question: What about the “relaxation heart rate (RHR) 0 hr” value [2, 4] of the same molecule?
Answer: The value was 363.22 ± 12.11 BPM.

Question: What about the “RHR normalization relative to 0 hr” value [2, 4] of the same molecule?
Answer: The value was 90.42 ± 4.74%.

Question: What about the “relaxation heart rate (RHR) 24 hr” value [2, 4] of the same molecule?
Answer: The value was 328.43 ± 18.01 BPM.

Question: What about the “relaxation heart rate (RHR) 0 hr” value [2, 5] of the same molecule?
Answer: Its value is 350.78 ± 20.23 BPM.

Question: What about the “RHR normalization relative to 0 hr” value [2, 5] of the same molecule?
Answer: Its value is 96.72 ± 1.78%.

Question: And the “relaxation heart rate (RHR) 24 hr” value [2, 5]?
Answer: The value was 339.28 ± 6.54 BPM.

Question: And the “relaxation heart rate (RHR) 0 hr” value [2, 6]?
Answer: Its value is 486.43 ± 6.63 BPM.

Question: And the “RHR normalization relative to 0 hr” value [2, 6]?
Answer: The value was 91.42 ± 6.94%.

Question: What about the “relaxation heart rate (RHR) 24 hr” value [2, 6] of the same molecule?
Answer: The value was 353.28 ± 27.98 BPM.

Question: And the “heart rate decrease after 24 hours (normalized average RHR)” value ([2]; 0.03 mM-treated test group)?
Answer: The value was 7.16%.

Question: What about the “change of heart rate (final RHR) relative to the original heart rate (OHR)” value ([2]; 0.06 mM hydrogen peroxide) of the same molecule?
Answer: Its value is −109 BPM.

Question: And the “decrease of heart rate (final RHR) relative to the original heart rate (OHR)” value ([2]; 0.06 mM hydrogen peroxide)?
Answer: The value was 22.7%.

Question: What about the “relaxation heart rate (RHR) 0 hr” value [2, 7] of the same molecule?
Answer: Its value is 383.81 ± 12.99 BPM.

Question: What about the “RHR normalization relative to 0 hr” value [2, 7] of the same molecule?
Answer: Its value is 73.96 ± 5.61%.

Question: And the “relaxation heart rate (RHR) 24 hr” value [2, 7]?
Answer: The value was 279.05 ± 12.71 BPM.

Question: And the “relaxation heart rate (RHR) 0 hr” value [2, 8]?
Answer: Its value is 370.07 ± 25.38 BPM.

Question: What about the “RHR normalization relative to 0 hr” value [2, 8] of the same molecule?
Answer: Its value is 74.26 ± 4.33%.

Question: What about the “relaxation heart rate (RHR) 24 hr” value [2, 8] of the same molecule?
Answer: Its value is 274.82 ± 16.01 BPM.

Question: And the “relaxation heart rate (RHR) 0 hr” value [2, 9]?
Answer: Its value is 378.43 ± 15.41 BPM.

Question: What about the “RHR normalization relative to 0 hr” value [2, 9] of the same molecule?
Answer: Its value is 79.13 ± 3.88%.

Question: What about the “relaxation heart rate (RHR) 24 hr” value [2, 9] of the same molecule?
Answer: Its value is 299.47 ± 14.70 BPM.

Question: What about the “relaxation heart rate (RHR) 0 hr” value [2, 10] of the same molecule?
Answer: Its value is 383.90 ± 13.02 BPM.

Question: What about the “RHR normalization relative to 0 hr” value [2, 10] of the same molecule?
Answer: Its value is 68.47 ± 1.93%.

Question: And the “relaxation heart rate (RHR) 24 hr” value [2, 10]?
Answer: The value was 262.87 ± 7.41 BPM.

Question: What about the “heart rate decrease after 24 hours (normalized average RHR)” value ([2]; 0.06 mM-treated test group) of the same molecule?
Answer: Its value is 25.97%.
